Counter-ions that a name gives are not always drawn.

The target in series [1] is T1, insulin lispro (hexameric form R6) (Homo sapiens, UniProt P01308, K53P/P52K).
T1 construct: purchased Eli Lilly Humalog®
Briefly: State of association of insulin lispro by circular dichroism (CD signal at 251 nm). It counts as physicochemical. To be noted: added to Humalog, FIG. 27. The text has this: Circular dichroism makes it possible to study the secondary and quaternary structure of insulin. The insulin monomers organize into dimers and hexamers. […] There are two hexameric forms, form R6 and form T6. […] Loss of the CD signal at 251 nm is connected with destabilization of the hexamer (and therefore the first sign of transformation of the hexamer to dimer).

Series [2] concerns the target human insulin (hexameric form) (Homo sapiens, UniProt P01308). Briefly: State of association of human insulin by circular dichroism (CD signal at 276 nm). The settings on record: absence of m-cresol, FIG. 28. In kind it is physicochemical. From the text: Loss of the CD signal at 276 nm is therefore characteristic of destabilization of the hexamer to dimers or monomers.

For series [3] the following is noted: pH; cited from earlier work.
The test system of the next series is humans. The settings on record: injected subcutaneously; cited from earlier work.
The conditions of series [4]: form of hexamers, 4° C.; cited from earlier work.

T1 sequence (P01308 25-54 P52K/K53P limits assumed): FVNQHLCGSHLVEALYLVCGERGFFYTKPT
T1 sequence (P01308 90-110 limits assumed): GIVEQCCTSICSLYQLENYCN
Chain of human insulin (hexameric form) (P01308 25-54 limits assumed): as the sequence (P01308 25-54 P52K/K53P limits assumed) above, with K28P, P29K counted along it

`O=C(O)CN(CCN(CC(=O)O)CC(=O)O)CC(=O)O` [EDTA, reference compound]: the “effect on the CD signal at 251 nm / R6 form of insulin lispro” value in series [1] is on record as “completely destructures the R6 form of insulin lispro”. Moreover, the “effect on the hexameric structure of human insulin (CD signal at 276 nm)” value in series [2] is recorded as “complete dissociation of the hexamer to dimers”.

Consider `O=C(O)CC(O)(CC(=O)O)C(=O)O` [citrate, sodium citrate], for which the “effect on the CD signal at 251 nm / R6 form of insulin lispro” value in series [1] is “almost no effect”.

Take “Insulin lispro: rapid-acting insulin analog, active of Humalog®”: in series [3], the isoelectric point was 5.3.

In the case of “human insulin: insulin obtained by synthesis or recombination whose peptide sequence is the sequence of human insulin”, in the series with humans, the hypoglycemic effect after was 60 min. Further, the “stable for” value in series [4] is listed as roughly 2 years.

These data come from patent publication US9492467B2, “Rapid-acting insulin formulation comprising an oligosaccharide” (ADOCIA, priority 2011, dated 2016).
